Assay results reported in article PMC2978705, “Thermodynamic Additivity of Sequence Variations: An Algorithm for Creating High Affinity Peptides Without Large Libraries or Structural Information” (PLoS ONE, 2010).
Where no end group is shown, it is not given here.

Each sequence was assayed against T1, TNF-α (Homo sapiens, UniProt P01375) (assay: Kinetic fits of SPR sensorgrams). Conditions: from koff and kon of SPR kinetic fits; read-out: Kd calculated from rate constants.
T1 sequence (P01375 77-233 limits assumed): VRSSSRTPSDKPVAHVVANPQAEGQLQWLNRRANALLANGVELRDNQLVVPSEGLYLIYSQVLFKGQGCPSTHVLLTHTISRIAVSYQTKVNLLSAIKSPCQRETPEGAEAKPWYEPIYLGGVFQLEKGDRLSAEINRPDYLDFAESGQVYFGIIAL
Type: binding
Method: Kinetic fits of the TNF1 and TNF1-opt SPR sensorgrams (Figure S7 in File S1) indicate that TNF1-opt has approximately an order of magnitude or more improvement in both on-rate (kon), and off-rate (koff), when compared to TNF1 (TNF1: koff = 1.6±0.5 s^−1, kon = 5.0±1.7×10^3 M^−1s^−1, TNF1-opt: koff = 0.2±0.02 s^−1 kon = 2.6±0.2×10^5 M^−1s^−1).
Figure S7. SPR sensorgram kinetic fits for TNF1 and TNF1-opt. On-rates (kon), off-rates (koff) and dissociation constants (Kd) shown were determined from kinetic fits of several sensorgrams across the same concentration series used in equilibrium binding response analysis.
(1 picture or pasted object on this page, not shown here)
In the case of FERSYLKMPWKFLQSRQGSC [TNF1-opt], the Kd is reported as 0.7 ± 0.02 µM.

Same assay, conditions: from koff and kon of SPR kinetic fits; read-out: Kd resulting from rate constants
Work on WGPSYAFKIYRFHQQSSGSC [TNF4-opt] yielded a Kd of 0.13 ± 0.03 µM.

Same assay, conditions: kinetic fits of SPR sensorgrams across a concentration series
For FERDPLMMPWSFLQSRQGSC [TNF1], the koff was 1.6 ± 0.5 s⁻¹ and the kon was 5000 ± 1.7e+06 M⁻¹ s⁻¹.
Work on FERSYLKMPWKFLQSRQGSC [TNF1-opt] yielded a koff of 0.2 ± 0.02 s⁻¹ and a kon of 260000 ± 2e+09 M⁻¹ s⁻¹.
Work on WGPSYAFKIYRFHQQSSGSC [TNF4-opt] yielded a koff of 0.0075 ± 8e-07 s⁻¹ and a kon of 58000 ± 1.2e+08 M⁻¹ s⁻¹.

Each sequence was assayed against T1, TNF-α (assay: Solution-phase fluorescence anisotropy of labeled TNF1-opt with TNF-α). Conditions: peptide labeled at C-terminal cysteine fixed at 100 nM, TNF-α varied 80 nM to 10 µM, triplicate.
Type: binding
Method: Figure 4 Equilibrium binding isotherms for TNF1-opt. Outer plot: SPR normalized replicate responses performed with TNF-α captured on the SPR chip surface and variable TNF-opt concentrations flowed over the surface. Inset plot: Solution-phase fluorescence anisotropy measurements performed in triplicate with TNF1-opt labeled at the C-terminal cysteine, TNF-opt concentration was fixed at 100 nM while TNF-α concentration was varied. TNF1-opt sensorgrams are available in Figure S5 in File S1, SPR binding isotherms for all enhanced variants tested are available in Figure S6 in File S1.
TNF1 and TNF4 Lead Generation from a […] Random Peptide Screen. Peptide Library and SPR Chip Preparation. Random 20-mer peptides were prepared in 384-well plates and diluted with Biacore HBS-EP buffer (GE Healthcare, Piscataway, NJ) containing 1 mg/ml carboxymethyl-dextran (Sigma-Aldrich, St. Louis, MO) to reduce non-specific binding to the CM-5 SPR chip surface. […]
TNF1-opt Fluorescence Polarization Affinity Characterization. Fluorescence anisotropy measurements were performed on a custom fluorimeter with an orthogonal optical configuration. […]
200 nM TNF-α and 200 nM E.coli lysate (calculated as a total protein concentration in the lysate) labeled with Alexa-555 and Alexa-647 (Invitrogen, Carlsbad, CA) respectively in PBST buffer containing 1% BSA was incubated with the microarray for 1 hour in a humidity chamber. […]
FERSYLKMPWKFLQSRQGSC [TNF1-opt] gave a Kd of 1.1 ± 0.2 µM.

Each sequence was assayed against T1, TNF-α (assay: Equilibrium SPR affinity of peptides for captured TNF-α). Conditions: equilibrium SPR binding responses, TNF-α.
Type: binding
Method: Point-variant libraries were prepared in 96-well stock plates as described in the supporting information. From the stock plate, peptides were diluted to 50 µM or 10 µM in Biacore HBS-EP buffer (GE Healthcare, Piscataway, NJ) containing 1 mg/ml carboxymethyl-dextran (Sigma-Aldrich, St. Louis, MO) to reduce non-specific binding to the CM-5 SPR chip surface. Biotinylated TNF-α was captured on a neutravidin coated Biacore CM-5 chip (GE Healthcare, Piscataway, NJ) at different levels on spots 1, 2, 4, and 5 across all four flow cells corresponding to a low to moderate Rmax range of 40-200 RU. Spot 3 on all flow cells contained only immobilized neutravidin and served as a reference spot.
Responses were normalized to the predicted Rmax so that results from different TNF-α capture levels could be directly compared.
Sequences containing multiple enhancing point variations were synthesized using standard solid-phase synthesis and purified. Multiple variant affinities were determined with the same protocol used for point-variant affinities.
Peptide binding energies and dissociation constants (Kd) were calculated separately as a mean and standard error of all replicate measurements.
Text S1: Experimental Details […]
Point-Variant Libraries. Point-variant libraries were ordered in PEPScreen® 96 -vial format from Sigma-Genosys (St. Louis, MO). The purity of each peptide in the library was […]
was dissolved in HBS-N buffer to an approximate 2 mg/ml concentration, each vial was centrifuged to spin insoluble peptide to the bottom of the vial. Supernatant was collected from each vial and transferred to a 96-well plate, peptide supernatant concentrations in each well was measured using A280 absorbance and a predicted molar extinction coefficient (ε280) based on the specific peptide sequence. Based on the supernatant concentrations, all the […]
plate(s). All SPR screens of the point-variants were done using dilutions from this stock […]
SPR Assays. SPR Chip Preparation. Unless otherwise noted, SPR immobilization was done on a Biacore A100 SPR system (GE Healthcare, Piscataway, NJ). A standard coupling protocol was employed to immobilize a neutravidin capture surface via exposed primary amines. The immobilization was performed at 25 °C using Sodium Acetate (10 mM in 150 mM Sodium Chloride, pH 4.5) as the running buffer. Addressable spots 1, 2, 3 on each of the four flow cells of the CM-5 dextran SPR chip (GE Healthcare, Piscataway, NJ) were activated by a 10 minute injection of a freshly prepared 1:1 solution of 400 mM 1-ethyl-3-(3-dimethylaminopropyl)-carbodimide (EDC): 100 mM N-hydroxysuccimide (NHS) in […]
WGPSDAFKITRFHQQSSGSC [Peptide Y1W] gave a Kd of 0.38 ± 0.08 µM.
With WGPSYAFKITRFHQQSSGSC [Y1W+D5Y] the Kd was 0.2 ± 0.03 µM.
Work on WGPSYAFKIYRFHQQSSGSC [TNF4-opt] yielded a Kd of 0.09 ± 0.02 µM.
YGPSDAFKIYRFHQQSSGSC [Peptide T10Y] was tested, and the Kd was 0.31 ± 0.01 µM.
With YGPSYAFKITRFHQQSSGSC [Peptide D5Y] the Kd was 0.28 ± 0.04 µM.

Same assay, conditions: equilibrium SPR, TNF-α captured on chip, peptide concentration series; mean ± standard error of several replicates; SEM
With FERYPLKMPWSFLQSRQGSC [D4Y+M7K] the Kd was 17 ± 1.9 µM.
YGPSDAFKITRFHQQSSGSC [TNF4] was tested, and the Kd was 23 ± 3.5 µM.
Work on FERSYLKMPWSFLQSRQGSC [D4S+P5Y+M7K] yielded a Kd of 14 ± 1 µM.
Sequence FERDPLMMPWSFLQSRQGSC [TNF1] has a Kd of 160 ± 19 µM.
Sequence FERDYLKMPWSFLQSRQGSC [P5Y+M7K] has a Kd of 27 ± 1.8 µM.
FERDYLMMPWSFLQSRQGSC [Peptide P5Y] was tested, and the Kd was 58 ± 3.4 µM.
For FERYPLMMPWSFLQSRQGSC [Peptide D4Y], the Kd was 44 ± 4.8 µM.
FERDYLMMPWKFLQSRQGSC [P5Y+S11K] was tested, and the Kd was 24 ± 1.4 µM.
Work on FERSYLKMPWKFLQSRQGSC [TNF1-opt] yielded a Kd of 1.6 ± 0.3 µM.
FERDPLMMPWKFLQSRQGSC [Peptide S11K] showed a Kd of 40 ± 7.2 µM.
With FERDPLKMPWSFLQSRQGSC [Peptide M7K] the Kd was 57 ± 20 µM.
For FERYPLMMPWKFLQSRQGSC [D4Y+S11K], the Kd was 9.3 ± 0.7 µM.
FERSYLMMPWKFLQSRQGSC [D4S+P5Y+S11K] showed a Kd of 7 ± 0.5 µM.

The sequences below were run against transferrin (Homo sapiens, UniProt P02787) (assay: Equilibrium SPR affinity of TRF26 peptides for immobilized transferrin). Conditions: peptide concentration series.
Sequence of transferrin (P02787 20-698, species assumed): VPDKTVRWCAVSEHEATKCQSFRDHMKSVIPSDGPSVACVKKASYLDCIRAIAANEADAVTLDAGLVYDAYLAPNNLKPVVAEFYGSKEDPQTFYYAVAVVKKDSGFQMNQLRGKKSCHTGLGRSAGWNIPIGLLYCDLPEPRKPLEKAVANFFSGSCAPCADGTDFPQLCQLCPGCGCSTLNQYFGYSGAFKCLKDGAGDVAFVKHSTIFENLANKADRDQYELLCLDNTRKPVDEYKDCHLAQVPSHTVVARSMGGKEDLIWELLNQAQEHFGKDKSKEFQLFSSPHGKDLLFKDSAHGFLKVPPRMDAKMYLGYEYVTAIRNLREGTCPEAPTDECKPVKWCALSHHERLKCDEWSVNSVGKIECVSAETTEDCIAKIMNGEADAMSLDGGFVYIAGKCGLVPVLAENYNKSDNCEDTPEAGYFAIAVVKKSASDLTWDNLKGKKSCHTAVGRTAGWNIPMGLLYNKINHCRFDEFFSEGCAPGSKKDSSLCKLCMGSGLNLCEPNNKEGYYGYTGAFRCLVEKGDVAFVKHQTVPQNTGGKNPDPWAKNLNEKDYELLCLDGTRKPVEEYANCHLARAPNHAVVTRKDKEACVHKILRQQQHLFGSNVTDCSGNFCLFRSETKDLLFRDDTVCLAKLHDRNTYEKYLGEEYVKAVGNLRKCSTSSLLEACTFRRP
Type: binding
In the case of AHKVVYQRQIRFAYNRYGSC [P6Y+H12F], the Kd is reported as 0.5 ± 0.1 µM.
In the case of AHKVVPQRQIRHAYNRYGSC [TRF26], the Kd is reported as 85 ± 14 µM.
In the case of AHKVVYQRQIRHAYNRYGSC [Peptide P6Y], the Kd is reported as 8.6 ± 1.6 µM.
For AHKVVPQRQIRFAYNRYGSC [Peptide H12F], the Kd was 9.7 ± 1.6 µM.
